The values that follow come from article PMC6259458, “Investigating the Spectrum of Biological Activity of Ring-Substituted Salicylanilides and Carbamoylphenylcarbamates” (Molecules, 2010).

A short description of data set [1]: Lipophilicity determination by RP-HPLC (capacity factor k / log k). It is filed as physicochemical. The following applies: C18 column, MeOH 70% / H2O 30%, isocratic. How it is done: Hydrophobicities (log P/Clog P) of the compounds 1-5 and 8-14 were calculated using two commercially available programs (ChemDraw Ultra 10.0 and ACD/LogP) and also measured by means of the RP-HPLC determination of capacity factors k with subsequent calculation of log k. The procedure was performed under isocratic conditions with methanol as an organic modifier in the mobile phase using an end-capped non-polar C18 stationary RP column. The results are shown in Table 1 and illustrated in Figure 1.
A Waters Alliance 2695 XE HPLC separation module and a Waters Photodiode Array Detector 2996 (Waters Corp., Milford, MA, USA) were used. A Symmetry® C18 5 μm, 4.6 × 250 mm, Part No. WAT054275 (Waters Corp., Milford, MA, USA) chromatographic column was used. The HPLC separation process was monitored by Empower™ 2 Chromatography Data Software, Waters 2009 (Waters Corp., Milford, MA, USA). A mixture of MeOH p.a. (70%) and H2O-HPLC – Mili-Q Grade (30%) was used as a mobile phase. The total flow of the column was 1.0 mL/min, injection volume 30 μL, column temperature 30 °C and sample temperature 10°C. The detection wavelength of 210 nm was chosen. The KI methanolic solution was used for the dead time (tD) determination. Retention times (tR) were measured in minutes. The capacity factors k were calculated using the Empower™ 2 Chromatography Data Software according to formula k = (tR - tD)/tD, where tR is the retention time of the solute, whereas tD denotes the dead time obtained using an unretained analyte. Log k, calculated from the capacity factor k, is used as the lipophilicity index converted to log P scale.

The next data set deals with Absidia corymbifera 272. In words: In vitro anti-fungal susceptibility, broth microdilution. It is filed as cell-based. The method, then: (§1) The broth microdilution test was used for the assessment of in vitro anti-fungal activity of the synthesized compounds against Absidia corymbifera 272 (AC) and Trichophyton mentagrophytes 445 (TM). Fluconazole (FLU) was used as the standard since it is a clinically used anti-mycotic drug. The procedure was performed with a two-fold dilution of the compounds in […]., Prague, Czech Republic) buffered to pH 7.0 with 0.165 mol of 3-morpholino-propane-1-sulfonic acid (MOPS, Sigma, Germany). […] Drug-free controls were included. […] The values of the minimum inhibitory concentration (MICs) were determined after 24 and 48 h of static incubation at 35 °C. For T. mentagrophytes, the final MICs were determined after 72 and 120 h of incubation.
On the technique in general: Broth dilution looks for growth in wells or tubes with falling amounts of substance.

Data set [2] relates to Trichophyton mentagrophytes 445. The data set is described as above. It is filed as cell-based. The following applies: MIC = IC50 value, NA = no significant activity. How it is done:
as §1

The subject of data set [3] is Staphylococcus epidermidis H 6966/08. In words: In vitro anti-bacterial susceptibility, Mueller-Hinton broth. It is filed as cell-based. The following applies: MIC = IC90 value, NA = no significant activity.
Data set [4] has as its system photosynthetic electron transport (PET) in spinach chloroplasts. In words: Inhibition of photosynthetic electron transport (PET) in spinach chloroplasts, DCPIP photoreduction. It is filed as biochemical, Spinacia oleracea L. The settings on record: for pIC50: DCPIP photoreduction, pH 7.2. The method, then:
Chloroplasts were prepared from spinach (Spinacia oleracea L.) according to Masarovicova and Kralova. The inhibition of photosynthetic electron transport (PET) in spinach chloroplasts was determined spectrophotometrically (Genesys 6, Thermo Scientific, USA), using an artificial electron acceptor 2,6-dichlorophenol-indophenol (DCIPP) according to Kralova et al., and the rate of photosynthetic electron transport was monitored as a photoreduction of DCPIP. The measurements were carried out in phosphate buffer (0.02 mol/L, pH 7.2) containing sucrose (0.4 mol/L), MgCl2 (0.005 mol/L) and NaCl (0.015 mol/L). The chlorophyll content was 30 mg/L in these experiments and the samples were irradiated (~100 W/m^2) from 10 cm distance with a halogen lamp (250 W) using a 4 cm water filter to prevent warming of the samples (suspension temperature 22 °C). The studied compounds were dissolved in DMSO due to their limited water solubility.

On the set-up of data set [5]: method as in PMID 1151976. The following applies: parameter of the substituents in the anilide part; cited from earlier work.
In data set [6] the test system is methicilin resistant Staphylococcus aureus H 5996/08. Briefly: In vitro anti-bacterial susceptibility, Mueller-Hinton broth. It is filed as cell-based. The settings on record: MRSA, methicillin-resistant Staphylococcus aureus, MIC = IC90 value, NA = no significant activity.
Data set [7] is described as follows: Solubility in the PET testing medium (observation). It is filed as physicochemical. The settings on record: precipitation during the experiments. The text has this:
The activity of the rest of the studied compounds was moderate or low relative to the standard. PET inhibition by 8 or 9 could not be determined due to precipitation of the compounds during the experiments. With respect to these small but closed specifically substituted groups of compounds some structure-activity relationships (SAR) can be proposed.

The test system of data set [8] is photosynthetic apparatus of spinach chloroplasts (PS 2 / PS 1). Briefly: Site of action: restoration of PET by artificial electron donors (DPC, DCPIPH2). It is filed as biochemical, Spinacia oleracea L. How it is done: To further determine the site of action of the studied compounds, experiments with 1,5-diphenylcarbazide (DPC) were performed. DPC is an artificial electron donor for PS 2 with a known site of action in the Z^•/D^• intermediate. The site of action of the artificial electron acceptor 2,6-dichlorophenol-indophenol (DCPIP) used for monitoring the Hill reaction is plastoquinone on the acceptor side of PS 2 [51]. Thus, if the part of the photosynthetic electron transport chain between manganese cluster and Z/D is inhibited, then DPC will restore PET through PS 2.

[9] abbreviates: Lichtheimia corymbifera, 272, 24 h, read-out: MIC AC 24 h.
Where [10] appears, read: Lichtheimia corymbifera, 272, 48 h, read-out: MIC AC 48 h.
The mark [11] stands for this setting: H6966/08, 24 h, read-out: MIC SE 24 h.
[12] abbreviates: H6966/08, 48 h, read-out: MIC SE 48 h.

As a reminder, the MIC is the lowest concentration found to suppress growth. Broadly, the pIC50 is the IC50 on a negative log10 scale, so that one unit is a factor of ten.

pIC50: −log10 of the molar value. Values after ≈ are worked out from the molar mass of the structure shown. Where two headings read alike, the source gives them in different places. Some results are limits rather than exact numbers.

The compound `Cc1cccc(C)c1NC(=O)c1ccccc1O` [Compound 2, N-(2,6-Dimethylphenyl)-2-hydroxybenzamide] came in with a log k in data set [1] of 0.6807. Moreover, the MIC in the data set on Absidia corymbifera 272 (setting [9]) was > 250 µM; in the data set on Absidia corymbifera 272 (setting [10]) it was > 250 µM; in data set [2] (72 h, read-out: MIC TM 72 h), 250 µM (≈ 60.3 µg/mL); in data set [2] (120 h, read-out: MIC TM 120 h), 500 µM (≈ 121 µg/mL); in [3] (setting [11]), > 500 µM; in data set [3] (setting [12]), > 500 µM. Also, the minimal inhibitory concentration (MIC) in data set [6] (24 h, read-out: MIC MRSA 24 h) was > 500 µM; in data set [6] (48 h, read-out: MIC MRSA 48 h), > 500 µM. In [4], the negative-log IC50 (pIC50) was 3.48. Also, the “MR (bulk parameter, reflecting bulkiness)” value (“MR” below) in data set [5] is 9.4. Further, the “σ (Hammett's parameter)” value in [5] is listed as 0.20.
Take `CCOc1ccccc1NC(=O)c1ccccc1O` [Compound 4, N-(2-Ethoxyphenyl)-2-hydroxybenzamide]: the log k in data set [1] is reported as 0.7515. Moreover, the minimum inhibitory concentration (MIC) with Absidia corymbifera 272 (setting [9]) was determined as 62.5 µM (≈ 16.1 µg/mL); in the data set with Absidia corymbifera 272 (setting [10]), 125 µM (≈ 32.2 µg/mL); in data set [2] (72 h, read-out: MIC TM 72 h), 62.5 µM (≈ 16.1 µg/mL); in [2] (120 h, read-out: MIC TM 120 h), 62.5 µM (≈ 16.1 µg/mL); in [3] (setting [11]), 125 µM (≈ 32.2 µg/mL); in [3] (setting [12]) it was 125 µM (≈ 32.2 µg/mL). Further, the MIC was 125 µM (≈ 32.2 µg/mL) in data set [6] (24 h, read-out: MIC MRSA 24 h) and 125 µM (≈ 32.2 µg/mL) in [6] (48 h, read-out: MIC MRSA 48 h). In data set [4], the pIC50 is 4.82. Besides, the “MR” value in data set [5] was 11.3. In addition, the “σ (Hammett's parameter)” value in [5] was 0.02.
For the compound `CCCOc1ccccc1NC(=O)c1ccccc1O` [Compound 5, 2-Hydroxy-N-(2-propoxyphenyl)benzamide], in data set [1], the log k is on record as 0.8401. The MIC in the data set with Absidia corymbifera 272 (setting [9]) is 31.2 µM (≈ 8.48 µg/mL); in the data set with Absidia corymbifera 272 (setting [10]), 31.2 µM (≈ 8.48 µg/mL); in [2] (72 h, read-out: MIC TM 72 h), 31.2 µM (≈ 8.48 µg/mL); in [2] (120 h, read-out: MIC TM 120 h), 31.2 µM (≈ 8.48 µg/mL); in [3] (setting [11]) it was 31.2 µM (≈ 8.48 µg/mL); in data set [3] (setting [12]), 31.2 µM (≈ 8.48 µg/mL). In addition, the minimal inhibitory concentration (MIC) is 31.2 µM (≈ 8.48 µg/mL) in [6] (24 h, read-out: MIC MRSA 24 h) and 31.2 µM (≈ 8.48 µg/mL) in data set [6] (48 h, read-out: MIC MRSA 48 h). In addition, the negative-log IC50 (pIC50) in [4] is 4.35. Further, the “MR” value in data set [5] is reported as 15.9.
On to `O=C(Nc1ccccc1Cl)c1ccc([N+](=O)[O-])cc1` [Compound 8, N-(2-Chlorophenyl)-4-nitrobenzamide], for which the log k in data set [1] was determined as 0.6782. Besides, in data set [7], the “solubility in the testing medium” value was “low solubility”. In data set [5], the “MR” value is 4.7 and the “σ (Hammett's parameter)” value is 0.67.
Regarding `O=C(NCc1ccccc1Cl)c1ccc([N+](=O)[O-])cc1` [Compound 9, N-(2-Chlorobenzyl)-4-nitrobenzamide], the log k in data set [1] is recorded as 0.6966. In data set [7], the “solubility in the testing medium” value is listed as “low solubility”. In data set [5], the “MR” value was 4.7 and the “σ (Hammett's parameter)” value was 0.67.
Turning to `O=C(Nc1cc(C(F)(F)F)ccc1Cl)c1ccc([N+](=O)[O-])cc1` [Compound 10, N-[2-Chloro-5-(trifluoromethyl)phenyl]-4-nitrobenzamide], the log k in data set [1] came out at 0.8269. In [4], the “PET-inhibiting / biological activity in words” value is recorded as “medium PET inhibiting activity” and the pIC50 was 4.30. In addition, in data set [5], the “MR” value is 8.7 and the “σ (Hammett's parameter)” value is given as 1.10.
Consider `Nc1ccc(C(=O)NCc2ccccc2Cl)cc1` [Compound 11, 4-Amino-N-(2-chlorobenzyl)benzamide], for which, in [1], the log k worked out at 0.5886. In addition, in [4], the “PET-inhibiting / biological activity in words” value was “very low activity” and the negative logarithm of the IC50 (pIC50) was 3.40. For the same compound, in data set [5], the “MR” value was 4.7 and the “σ (Hammett's parameter)” value is 0.67.
For `Nc1ccc(C(=O)Nc2cc(C(F)(F)F)ccc2Cl)cc1` [Compound 12, 4-Amino-N-[2-chloro-5-(trifluoromethyl)phenyl]benzamide], in data set [4], the “PET-inhibiting / biological activity in words” value is on record as “did not show any biological activity in any of the assays”. For the same compound, in [5], the “MR” value is reported as 8.7 and the “σ (Hammett's parameter)” value is 1.10.
Consider `COC(=O)Nc1ccc(C(=O)NCc2ccccc2Cl)cc1` [Compound 13, Methyl 4-(2-chlorobenzylcarbamoyl)phenylcarbamate], for which the log k in [1] amounted to 0.6345. Moreover, the “restoration of PET through PS 1 after addition of DCPIPH2” value in [8] (DCPIPH2 40 μmol/L added to treated chloroplasts) is “completely restored”. Moreover, in data set [8] (DPC 2 mmol/L added to treated chloroplasts), the “restoration of PET through PS 2 after addition of DPC” value was “not restored”. Also, the pIC50 in [4] was 5.80. Besides, in [5], the “MR” value was 4.7 and the “σ (Hammett's parameter)” value is on record as 0.67.
`COC(=O)Nc1ccc(C(=O)Nc2cc(C(F)(F)F)ccc2Cl)cc1` [Compound 14, Methyl 4-[2-chloro-5-(trifluoromethyl)phenylcarbamoyl]phenylcarbamate] gave a log k in data set [1] of 0.7782. In [4], the pIC50 is 6.00. In data set [5], the “MR” value is 8.7 and the “σ (Hammett's parameter)” value is reported as 1.10.
Turning to `OC(Cn1cncn1)(Cn1cncn1)c1ccc(F)cc1F` [FLU, Fluconazole, reference compound], the MIC with Absidia corymbifera 272 (setting [9]) was > 125 µM; in the data set on Absidia corymbifera 272 (setting [10]), > 125 µM; in [2] (72 h, read-out: MIC TM 72 h) it was 1.95 µM (≈ 0.597 µg/mL); in data set [2] (120 h, read-out: MIC TM 120 h), 3.91 µM (≈ 1.2 µg/mL).
Regarding `CC1(C)S[C@@H]2[C@H](NC(=O)Cc3ccccc3)C(=O)N2[C@H]1C(=O)O` [PEN, Penicillin G, reference compound], the minimum inhibitory concentration (MIC) in [3] (setting [11]) worked out at 31.6 µM (≈ 10.6 µg/mL); in [3] (setting [12]) it was 125 µM (≈ 41.8 µg/mL); in data set [6] (24 h, read-out: MIC MRSA 24 h), 125 µM (≈ 41.8 µg/mL); in data set [6] (48 h, read-out: MIC MRSA 48 h), 125 µM (≈ 41.8 µg/mL).
